Measurements taken from patent publication US5288718A, “Method for decorporating radioactive isotope from living organism” (priority 1989, dated 1994).
Where a name gives a salt, the structure may show the parent alone.

Columns and labels:
[1] = Lethal dose determination, intravenous, mortality within 30 days; conditions: in vivo, DMCRYP salt×NaBr (x=2.5-8) as prepared according to Example I
Procedure: Healing power of the composition has been evidenced by animal tests. In this way, the minimum and average lethal doses (LD0.1 and LD50, respectively) have been established.
For the determination of lethal doses, the active ingredient was administered intravenously at increasing concentrations to the animals. Minimum and average lethal doses were calculated from the mortality within 30 days. […] On every occasion, one tenth of this dose was introduced into each animal in this experiment.

[2] = Hygroscopicity; type: physicochemical; conditions: sodium salt versus lithium salt
[3] = Water solubility; type: physicochemical; conditions: product of Example 1
[4] = Ca^2+ compared with Sr^2+; cited from earlier work
[5] = with increasing atomic number (decreasing ionic size); cited from earlier work
[6] = Whole-body retention of cerium-144 introduced peritoneally (FIG. 6, Example 6); type: in vivo; conditions: female Swiss mice
From the text: (§1) In order to test the effect of DMCRYP on enhancing the decorporation of radiostroncium and the rare earth metal radiocerium from the body, male and female Swiss mice and Wistar rats were selected. […] In the comparative tests, a known polyaminopolycarboxylic acid-type decorporant (decorporating agent), calcium-trisodium salt of DTPA (diethylenetriaminopentacetic acid) (Heyl and Co., Berlin) was used at equimolar concentration. The amount of residual isotopes in the animal organisms was determined by whole-body activity measurements in every 1 to 4 days and was expressed as per cent of activity introduced.
Treatments were repeated twice, on the Days 2 and 4.

[7] = Whole-body retention of radiostroncium in skin or subcutaneous interstitial tissues (FIG. 3, Example 3); type: in vivo; conditions: subcutaneous/skin isotope
From the text: as §1

[8] = Whole-body retention of Sr-85 introduced into the peritoneal cavity, female Wistar rats (FIG. 2, Example 2); type: in vivo; conditions: equimolar concentration
From the text: as §1

[9] = Whole-body retention of Sr-85 introduced into the peritoneal cavity, mice (FIG. 1); type: in vivo, Swiss mice; conditions: equimolar concentration, isotope in peritoneal cavity
From the text: as §1

O=C(O)C(C(=O)O)N1CCOCCOCCN(C(C(=O)O)C(=O)O)CCOCCOCC1 [DMCRYP, 1,4,10,13-tetraoxa-7,16-diazacyclooctadecane-N,N'-dimalonic acid tetrasodium salt]
LD50 at 720 h [1]: 1050 µmol/kg
Hygroscopicity ([2]; listed as sodium salt): not hygroscopic
Water solubility [3]: very soluble

O=C(O)CN(CCN(CC(=O)O)CC(=O)O)CC(=O)O [EDTA, ethylenediaminetetraacetic acid]
Relative stability of Ca^2+ and Sr^2+ complexes [4]: considerably more stable with Ca^2+ than with Sr^2+

O=C(O)CN1CCOCCOCCN(CC(=O)O)CCOCCOCC1 [1,10-diaza-4,7,13,16-tetraoxacyclooctadecane-N,N'-diacetic acid]
Relative stability of Ca^2+ and Sr^2+ complexes [4]: identical within the experimental error
Stability constants of rare earth metal complexes, trend [5]: decrease with the increasing atomic number

O=C(O)CN(CCN(CC(=O)O)CC(=O)O)CCN(CC(=O)O)CC(=O)O [DTPA, diethylenetriaminopentacetic acid]
Relative stability of Ca^2+ and Sr^2+ complexes [4]: considerably more stable with Ca^2+ than with Sr^2+
Whole-body retention of cerium-144 ([6]; Day 2, after first treatment, 100 μmole/kg i.v. 30 minutes after isotope, control 85.9): 72.8%
Effect of second and third treatments ([6]; 100 μmole/kg, Days 2 and 4): ineffective
Effect of treatment on whole-body retention [7]: ineffective
Retention values compared to control [8]: lower than those in the control but the difference was not statistically significant
Removal of Sr isotope from the animal body [9]: ineffective

O=C(O)C(C(=O)O)N1CCOCCOCCN(C(C(=O)O)C(=O)O)CCOCCOCC1 [lithium salt]
Hygroscopicity [2]: hygroscopic
